How the values were obtained:
Format in all cases: in vivo
[1] = tested on: Rhipicephalus (Boophilus) microplus larvae (strain Parkhurst, resistant against synthetic pyrethroids); test: Rhipicephalus (Boophilus) microplus in-vitro contact test, larval cattle tick; conditions: after 48 hours, read-out: activity (efficacy: larvae dead or moribund); for pest or weed control at 1 µg/cm2, 100 g/ha: application rate 1 μg/cm^2 (=100 g/ha); for pest or weed control at 5 µg/cm2, 500 g/ha: application rate 5 μg/cm^2 (=500 g/ha)
Method: Rhipicephalus (Boophilus) microplus—In-Vitro Contact Tests Larval Cattle Tick (Strain Parkhurst, Resistant Against Synthetic Pyrethroids)
9 mg compound is solved in 1 ml acetone and diluted with acetone to the desired concentration. 250 μL of the test solution is filled in 25 mL glass test tubes and homogeneously distributed on the inner walls by rotation and tilting on a shaking device (2 h at 30 rpm). With a compound concentration of 900 ppm, an inner surface of 44.7 cm^2 and a homogeneous distribution, a dose of 5 μg/cm^2 is achieved.
After the solvent has evaporated, each test tube is filled with 20-50 cattle tick larvae (Rhipicephalus microplus), closed with a perforated lid and incubated in a horizontal position at 85% relative humidity and 27° C. in an incubator. After 48 hours efficacy is determined. The larvae are patted on the ground of the tubes and negative geotactic behavior is recorded.
An efficacy of 100% means all larvae are dead or moribund; 0% means no larvae are dead or moribund.

[2] = tested on: adult engorged female ticks (Rhipicephalus microplus); test: Rhipicephalus (Boophilus) microplus injection test; conditions: 168 h, application rate 4 μg/tick, egg deposition after 7 days, read-out: activity (efficacy: infertile eggs)
Method: Rhipicephalus (Boophilus) microplus—Injection Test
Solvent: dimethyl sulfoxide
To produce a suitable preparation of active compound, 10 mg of active compound are dissolved in 0.5 mL solvent, and the concentrate is diluted with solvent to the desired concentration.
Five adult engorged female ticks (Rhipicephalus microplus) are injected with 1 μL compound solution into the abdomen. The ticks are transferred into replica plates and incubated in a climate chamber.
After 7 days egg deposition of fertile eggs is monitored. Eggs where fertility is not visible are stored in a climate chamber till hatching after about 42 days. An efficacy of 100% means all eggs are infertile; 0% means all eggs are fertile.

[3] = tested on: adult brown dog ticks (Rhipicephalus sanguineus); test: Rhipicephalus sanguineus in-vitro contact test, adult brown dog ticks; conditions: application rate 5 μg/cm^2 (=500 g/ha), after 48 hours, read-out: activity (efficacy: ticks dead or moribund)
Method: Rhipicephalus sanguineus—In-Vitro Contact Tests with Adult Brown Dog Ticks
(§1) 9 mg compound is solved in 1 mL acetone and diluted with acetone to the desired concentration. 250 μL of the test solution is filled in 25 mL glass test tubes and homogeneously distributed on the inner walls by rotation and tilting on a shaking device (2 h at 30 rpm). With a compound concentration of 900 ppm, an inner surface of 44.7 cm^2 and a homogeneous distribution, a dose of 5 μg/cm^2 is achieved.
After the solvent has evaporated, each test tube is filled with 5-10 adult brown dog ticks (Rhipicephalus sanguineus), closed with a perforated lid and incubated in a lying position at room temperature and relative humidity. After 48 hours efficacy is determined. The ticks are patted on the ground of the tubes and are incubated on a heating plate at 45-50° C. for at most 5 minutes. Immotile or uncoordinated moving ticks, which are not able to escape the heat by climbing upwards, are marked as dead or moribund.
An efficacy of 100% means all ticks are dead or moribund; 0% means no ticks are dead or moribund.

[4] = tested on: green peach aphid (Myzus persicae); test: Myzus persicae oral test; conditions: 120 h, read-out: activity (mortality)
Method: Solvent: 100 parts by weight acetone
To produce a suitable preparation of active compound, 1 part by weight of active compound is mixed with the stated amount of solvent, and the concentrate is diluted with water to the desired concentration.
50 μL compound solution is filled in microtiter plates and 150 μL IPL41 insect medium (33%+15% sugar) is added to obtain a total volume of 200 μL per well. Afterwards the plates are sealed with parafilm through which a mixed population of the green peach aphid (Myzus persicae) can suck on the compound preparation.
(§2) After 5 days mortality in % is determined. 100% means all aphids have been killed and 0% means none of the aphids have been killed.

[5] = tested on: adult cat fleas (Ctenocephalides felis); test: Ctenocephalides felis in-vitro contact test, adult cat flea; conditions: application rate 5 μg/cm^2 (=500 g/ha), after 48 hours, read-out: activity (efficacy: fleas dead or moribund)
Method: Ctenocephalides felis—In-Vitro Contact Tests Adult Cat Flea
as §1
After the solvent has evaporated, each test tube is filled with 5-10 adult cat fleas (Ctenocephalides felis), closed with a perforated lid and incubated in a lying position at room temperature and relative humidity. After 48 hours efficacy is determined. The fleas are patted on the ground of the tubes and are incubated on a heating plate at 45-50° C. for at most 5 minutes. Immotile or uncoordinated moving fleas, which are not able to escape the heat by climbing upwards, are marked as dead or moribund.
An efficacy of 100% means all fleas are dead or moribund; 0% means no fleas are dead or moribund.

[6] = tested on: green peach aphid (Myzus persicae); test: Myzus persicae spray test; conditions: foliar, 120 h, application rate 100 g/ha, after 5 days, Chinese cabbage leaf disks, read-out: activity (mortality)
Method: Myzus persicae—Spray Test
(§3) To produce a suitable preparation of active compound, 1 part by weight of active compound is mixed with the stated amount of solvents and is diluted with water, containing an emulsifier concentration of 1000 ppm, to the desired concentration. Further test concentrations are prepared by dilution with emulsifier containing water.
Chinese cabbage (Brassica pekinensis) leaf disks infected with all instars of the green peach aphid (Myzus persicae), are sprayed with a preparation of the active ingredient of the desired concentration.
as §2

[7] = tested on: fall armyworm larvae (Spodoptera frugiperda); test: Spodoptera frugiperda spray test; conditions: 168 h, application rate 100 g/ha, after 7 days, maize leaf sections
Method: Spodoptera frugiperda—Spray Test
as §3
Maize (Zea mays) leaf sections are sprayed with a preparation of the active ingredient of the desired concentration. Once dry, the leaf sections are infested with fall armyworm larvae (Spodoptera frugiperda).
After 7 days mortality in % is determined. 100% means all caterpillars have been killed and 0% means none of the caterpillars have been killed.

[8] = tested on: larvae of the banded cucumber beetle (Diabrotica balteata); test: Diabrotica balteata spray test; conditions: 168 h, application rate 100 g/ha (=32 μg/well), after 7 days, wheat seeds, read-out: activity (efficacy: seedlings grown)
Method: Diabrotica balteata—Spray Test
(§4) To produce a suitable preparation of active compound, 1 part by weight of active compound is mixed with the stated amount of solvent, and the concentrate is diluted with water, containing an emulsifier concentration of 1000 ppm, to the desired concentration. Further test concentrations are prepared by dilution with emulsifier containing water.
Soaked wheat seeds (Triticum aestivum) are placed in a multiple well plate filled with agar and some water and are incubated for 1 day to germinate (5 seeds per well). The germinated wheat seeds are sprayed with a test solution containing the desired concentration of the active ingredient. Afterwards each unit is infected with 10-20 larvae of the banded cucumber beetle (Diabrotica balteata).
After 7 days efficacy in % is determined. 100% means all the seedlings have grown up like in the untreated, uninfected control; 0% means none of the seedlings have grown.

[9] = tested on: larvae of the southern green stink bug (Nezara viridula); test: Nezara viridula spray test; conditions: 96 h, after 4 days, barley plants; for mortality at 500 g/ha: application rate 500 g/ha, read-out: activity (mortality); for mortality at 100 g/ha: application rate 100 g/ha
Method: Nezara viridula—Spray Test
as §4
Barley plants (Hordeum vulgare) are sprayed with a test solution containing the desired concentration of the active ingredient and are infested with larvae of the southern green stink bug (Nezara viridula).
After 4 days mortality in % is determined. 100% means all the stink bugs have been killed; 0% means none of the stink bugs have been killed.

| Compound | pest or weed control at 1 µg/cm2, 100 g/ha [1] | pest or weed control at 0.004 mg [2] | pest or weed control at 5 µg/cm2, 500 g/ha [3] | mortality at 4 ppm [4] | pest or weed control at 5 µg/cm2, 500 g/ha [1] | mortality at 100 g/ha [7] | pest or weed control at 32 µg/disc, 100 g/ha [8] | mortality at 500 g/ha [9] | other results |
| --- | --- | --- | --- | --- | --- | --- | --- | --- | --- |
| C[C@H](NC(=O)c1cc(C(F)(F)F)cc(C(F)(F)F)c1)c1ncnn1-c1ccc(C(=O)N2CCC(O)CC2)cn1 [Example I-6] | 90% | 100% | 80% | 100% |  |  |  |  |  |
| C[C@H](NC(=O)c1cc(C(F)(F)F)cc(C(F)(F)F)c1)c1ncnn1-c1ccc(C(=O)N2CCC2)cn1 [Example I-10] | 100% | 100% | 100% | 100% | 100% | 100% |  |  | pest or weed control at 5 µg/cm2 [5]: 100%; mortality at 100 g/ha [6]: 90% |
| Cc1nc([C@H](C)NC(=O)c2cc(C(F)(F)F)cc(C(F)(F)F)c2)n(-c2ncc(C(=O)N3CCCC3)s2)n1 [Example I-16, N-[(1S)-1-{3-methyl-1-[5-(pyrrolidin-1-ylcarbonyl)-1,3-thiazol-2-yl]-1H-1,2,4-triazol-5-yl}ethyl]-3,5-bis(trifluoromethyl)benzamide] | 100% | 80% |  | 100% | 100% | 100% | 100% |  |  |
| Cc1nc([C@H](C)NC(=O)c2cc(Cl)cc(C(F)(F)F)c2)n(-c2ccc(C(=O)N3CC[C@H](O)C3)cn2)n1 [Example I-25] |  | 100% |  | 100% |  |  |  |  |  |
| Cc1nc([C@H](C)NC(=O)c2cc(Cl)cc(C(F)(F)F)c2)n(-c2ccc(C(=O)N3CC[C@@H](O)C3)cn2)n1 [Example I-26] |  | 100% |  | 100% |  |  |  |  |  |
| C[C@H](NC(=O)c1cc(Cl)cc(C(F)(F)F)c1)c1ncnn1-c1ccc(C(=O)N2CCCOCC2)cn1 [Example I-34] | 100% | 100% | 100% |  | 100% |  |  |  |  |
| CC1CCN(C(=O)c2ccc(-n3ncnc3[C@H](C)NC(=O)c3cc(Cl)cc(C(F)(F)F)c3)nc2)CC1 [Example I-38] |  | 100% | 80% |  |  |  | 100% |  |  |
| C[C@H](NC(=O)c1cc(C(F)(F)F)cc(C(F)(F)F)c1)c1ncnn1-c1ccc(C(=O)N(C)C2CCN(C)CC2)cn1 [Example I-62] |  |  |  |  |  |  | 80% | 100% |  |
| C[C@H](NC(=O)c1cc(C(F)(F)F)cc(C(F)(F)F)c1)c1ncnn1-c1ccc(C(=O)N2CCNC(=O)C2)cn1 [Example I-65] |  |  |  | 100% |  |  |  |  | mortality at 100 g/ha [9]: 90% |
| C[C@H](NC(=O)c1cc(Cl)cc(S(=O)(=O)C2CC2)c1)c1nc(C2CC2)nn1-c1ccc(C(=O)N2CCOCC2)cn1 [Example I-90] |  |  |  |  |  | 100% |  | 100% |  |
| Cc1nc([C@H](C)NC(=O)c2cc(C(F)(F)F)cc(C(F)(F)F)c2)n(-c2ncc(C(=O)N3C[C@@H](C)O[C@H](C)C3)s2)n1 [Example I-106] | 100% | 100% | 100% | 100% | 100% | 100% | 100% |  |  |
| C[C@H](NC(=O)c1cc(Cl)cc(S(C)(=O)=O)c1)c1ncnn1-c1ccc(C(=O)N2CCSCC2)cn1 [Example I-120] |  |  |  | 100% |  |  | 80% |  | mortality at 100 g/ha [9]: 90% |
| C[C@@H]1CN(C(=O)c2ccc(-n3ncnc3[C@H](C)NC(=O)c3cc(Cl)cc(S(C)(=O)=O)c3)nc2)C[C@@H](C)O1 [Example I-121] |  |  |  | 100% |  |  |  | 100% | mortality at 100 g/ha [9]: 90% |
| CCc1nc([C@H](C)NC(=O)c2cc(Cl)cc(S(=O)(=O)C3CC3)c2)n(-c2ccc(C(=O)N3C[C@@H](C)O[C@@H](C)C3)cn2)n1 [Example I-133] |  |  |  |  |  | 100% |  | 100% |  |
| CCc1nc([C@H](C)NC(=O)c2cc(Br)cc(OC(F)(F)F)c2)n(-c2ccc(C(=O)N3C[C@@H](C)O[C@@H](C)C3)cn2)n1 [Example I-135] | 100% |  | 100% |  | 100% | 100% | 100% | 100% | pest or weed control at 5 µg/cm2 [5]: 100% |

— US20230058623A1, “NOVEL HETEROARYL-TRIAZOLE COMPOUNDS AS PESTICIDES” (Bayer Aktiengesellschaft, priority 2019, published 2023)
